This test has as its target T1, human VR1 (Homo sapiens, UniProt Q8NER1).
T1 construct: expressed in transfected cells
The test is described as follows: FLIPR based calcium assay, antagonism of capsaicin response in 1321N1 cells stably expressing human VR1. It counts as cell-based. Particulars: transfected astrocytoma 1321N1 cells, 30 min pre-incubation, capsaicin challenge; pKb generated from IC50 using the Cheng-Prusoff equation. The method, then: The plates were then washed 4 times with Tyrode containing 1.5 mM calcium, without probenecid. […] Capsaicin (Sigma) was then added to the cells. Compounds having antagonist activity against the human VR1 were identified by detecting differences in fluorescence when measured after capsaicin addition, compared with no compound buffer controls.

Each structure is given as a SMILES string.

T1 sequence (Q8NER1 whole entry): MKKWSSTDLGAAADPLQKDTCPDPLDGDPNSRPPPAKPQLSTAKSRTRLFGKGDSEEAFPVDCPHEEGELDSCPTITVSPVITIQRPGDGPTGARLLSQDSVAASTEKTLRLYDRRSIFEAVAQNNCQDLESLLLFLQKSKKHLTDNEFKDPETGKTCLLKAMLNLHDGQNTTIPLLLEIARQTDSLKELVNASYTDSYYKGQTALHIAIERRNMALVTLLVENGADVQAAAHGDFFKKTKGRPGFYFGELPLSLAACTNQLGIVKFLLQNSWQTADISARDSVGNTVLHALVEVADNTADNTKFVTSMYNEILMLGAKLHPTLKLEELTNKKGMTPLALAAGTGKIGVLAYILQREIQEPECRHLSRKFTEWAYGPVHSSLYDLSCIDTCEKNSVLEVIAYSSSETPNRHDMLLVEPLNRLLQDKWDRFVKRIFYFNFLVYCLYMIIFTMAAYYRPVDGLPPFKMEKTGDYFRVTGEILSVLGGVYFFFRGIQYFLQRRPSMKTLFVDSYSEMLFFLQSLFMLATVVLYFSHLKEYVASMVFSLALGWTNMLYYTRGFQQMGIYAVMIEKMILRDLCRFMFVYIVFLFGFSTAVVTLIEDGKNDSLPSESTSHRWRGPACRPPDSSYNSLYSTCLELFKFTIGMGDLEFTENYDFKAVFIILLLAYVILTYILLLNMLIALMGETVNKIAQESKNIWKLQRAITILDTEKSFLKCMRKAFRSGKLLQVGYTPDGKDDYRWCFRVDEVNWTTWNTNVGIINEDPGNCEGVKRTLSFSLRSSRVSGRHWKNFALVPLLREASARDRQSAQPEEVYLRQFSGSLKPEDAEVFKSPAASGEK

With `Cc1cc2c(NC(=O)NC3CN(c4ccc(C(F)(F)F)cn4)C3)cccc2nn1` [Example 16], the Kb is less than 100 nM.

Values taken from patent US7514562B2, “Urea derivatives and their use as vanilloid receptor antagonists in the treatment of pain” (Glaxo Group Limited, priority 2003, dated 2009).
